The values below come from patent US20260294863A1, “METHOD OF TREATING FIBROTIC-RELATED CONDITION” (YISSUM RESEARCH DEVELOPMENT COMPANY OF THE HEBREW …, priority 2023, published 2026).

The nature of assay [1]: Mortality in bleomycin-induced lung fibrosis. It counts as in vivo, C57BL/6JOlaHsd mice. The procedure: The animal model of bleomycin-induced lung fibrosis is widely used to characterize the potential inhibitory effect of newly developed drugs (Distler et al. 2019). Experiments were performed in C57BL/6JOlaHsd male and female mice aged 12-13 weeks. Male mice weighed 23-27.3 g and female mice, 19.4-21.1 g. They were housed under pathogen-free conditions, up to 6 per cage, in IVC cages under a controlled temperature of 22-24° C., humidity and alternating 12-h light/dark cycles and provided with food and water ad libitum. […] Saline (2-3/sex) and bleomycin controls were anesthetized as described above. Bleomycin solution (0.25 mg/kg in 50 μl) was instilled into the lumen of the trachea as shown in a video by Ehrentraut et al. (2019). […] Mice were weighed daily and sacrificed on day 21. Bronchial fluid was collected as described in Ehrentraut et al. (2019). TNFα and IL-6 in the bronchial fluid lavage was measured by ELISA as described in the preceding section.

The test system of assay [2] is cells (oxidative stress induced by Sin 1). The note with it: cited from earlier work.
Assay [3] can be described thus: Body weight in bleomycin-induced skin sclerosis. It counts as in vivo, C57BL/6 mice. The note with it: 10 mg/kg/day in drinking fluid. The procedure: Male C57BL/6 mice aged 8 weeks were housed under pathogen-free conditions at a controlled temperature of 22-24° C., humidity and alternating 12-h light/dark cycles and provided with food and water ad libitum. Skin sclerosis was induced as described by Ravanetti et al, (2020). A small incision was made in the skin at the back caudal to the scapulae and subcutaneous pocket was created into which an Alzet micro-osmotic pump was implanted, and the incision closed with two stiches and a surgical clip. The pumps contained bleomycin, (delivered at the rate of 60 U/kg body weight) or saline (control) and were removed 10 days after implantation. The mice were monitored daily until they recovered completely and weighed twice weekly from the beginning of the experiment.
Ladostigil (10 mg/kg/day) was administered in the drinking fluid to 10 mice, housed 2/cage, from 3 days before bleomycin pump installation until the end of the experiment. The fluid intake of the mice was measured daily. The dose of ladostigil was adjusted accordingly. Bleomycin alone, (10 mice) and saline controls (6 mice) received regular drinking fluid.

The test system of another assay is EGR1. Kind of assay: Nuclear levels of EGR1 in microglia activated by BzATP and LPS. It counts as cell-based, Balb/C mice. The procedure: Experiments were performed on primary microglial cells isolated from brains of neonatal Balb/C mice as previously described (Reichert and Rotshenker, 2003). The brains were stripped of their meninges and enzymatically dissociated. Cells were plated on Poly-L-lysine coated flasks for one week, re-plated for 1- to 2-hr on bacteriological plates and non-adherent cells were washed away. Microglia were propagated by incubation in 20% of medium, conditioned by the L-cell line that produces mouse-CSF. They were identified by morphology and positive immune-reactivity to P2y12, F4/80, complement receptor-3 and Galectin-3/MAC-2 (Reichert and Rotshenker 2003; Gitik et al. 2011).
The addition of BzATP/LPS to microglia increased cytoplasmic levels of TNFαIP3 protein and nuclear ERGR1 protein.

The test system of a further assay is TGFβ. Briefly: Cells containing TGFβ in the lung, bleomycin-induced lung fibrosis. The note with it: ladostigil + bleomycin; p<0.05. It counts as in vivo, C57BL/6JOlaHsd mice. The procedure:
The animal model of bleomycin-induced lung fibrosis is widely used to characterize the potential inhibitory effect of newly developed drugs (Distler et al. 2019). Experiments were performed in C57BL/6JOlaHsd male and female mice aged 12-13 weeks. Male mice weighed 23-27.3 g and female mice, 19.4-21.1 g. They were housed under pathogen-free conditions, up to 6 per cage, in IVC cages under a controlled temperature of 22-24° C., humidity and alternating 12-h light/dark cycles and provided with food and water ad libitum. […] TNFα and IL-6 in the bronchial fluid lavage was measured by ELISA as described in the preceding section.
Specimens taken from the left lung were embedded in paraffin and cut into 5 μm-thick slices. […] They were rehydrated and stained with a solution of Sirius red (100 mg/100 ml of [COMPOUND LEFT OUT], rinsed in distilled water until clear, dehydrated and mounted in a resinous medium. The red stain (also called “Sirius red” stain) is one of the best understood histochemical techniques. It relies on the birefringent properties of collagen and is much more specific than the other common collagen stains, Pulmonary fibrosis was evaluated on a score of 0-4 on 15-20 different fields taken from each lung section, according to the area and intensity of fibrotic staining in the field, excluding that in blood vessels. […]

One may read the mortality as the percentage killed. The low end stands for more survivors, the high end for fewer survivors.

Turning to `C#CCN[C@@H]1CCc2ccc(OC(=O)N(C)CC)cc21` [Ladostigil, 6-(N-ethyl, N-methylcarbamyloxy)-N propargyl-1 (R)-aminoindan hemitartrate], the mortality turned out to be 20% in assay [1] (females, ladostigil+bleomycin, 2.5 mg/kg (2/10)); 5% in assay [1] (females, ladostigil+bleomycin, 5 mg/kg (1/20)); 22% in assay [1] (males, bleomycin+ladostigil 5 mg/kg, day 17 (2/9)); 9% in assay [1] (males, ladostigil 10 mg/kg, day 17 (1/11)). The “mortality (animals died/total)” value in assay [1] (females, ladostigil+bleomycin, dose not given) is 1/11. In addition, the “concentration preventing oxidative stress, fold lower than those inhibiting AChE or MAO” value in assay [2] was 20 -fold. Besides, the “oxidative stress in cells / fall in mitochondrial potential” value in assay [2] (induced by Sin 1) is “prevented oxidative stress in cells”. In addition, the “weight gain compared with bleomycin” value in assay [3] (days 18, 21, 24 and 27) is reported as “greater than in those on bleomycin”. The “increase in body weight” value in assay [3] (days 24-27, skin sclerosis) is reported as 15%. The “Mean percent of nuclei with positive EGR1 protein immunoreactivity ± SEM” value in the assay on EGR1 (BzATP/LPS, ladostigil 1×10^−10 M, Medium 19.0 ± 4.2) was determined as 56.0 ± 3.9%. In addition, the “change in nuclear EGR1 protein” value in the assay with EGR1 (microglia, ladostigil 1×10^−10 M on top of BzATP/LPS) was “decreased”. Further, in the assay on TGFβ, the “number of cells containing TGFβ in the lung” value is recorded as “significantly reduced the number of cells containing TGFβ”.
